Values of other authors in publication PMC10949855 (Journal of veterinary pharmacology and therapeutics, 2022).

What was measured:
[1] = after SC and IM administration at 0.25 mg/kg, dogs; ref Pfeffer et al., 1980; cited from earlier work
dogs = settings: SC, ref Pircio et al., 1976; cited from earlier work
[2] = test system: dogs undergoing soft tissue surgery; settings: 0.4 mg/kg IV, ref Gomes et. al., 2020; cited from earlier work

For Oc1ccc2c(c1)[C@@]13CCCC[C@@]1(O)[C@@H](C2)N(CC1CCC1)CC3 [butorphanol], which CMAX range [1] is on record?
Its CMAX range is 25 to 33 ng/mL.

What about the terminal half-life [1] of the same molecule?
Its terminal half-life is 1.5 to 1.7 h.

What about the “dose of maximum effect on miosis” value (dogs) of the same molecule?
The value was 0.25 mg/kg.

What about the “analgesia in clinical trial” value [2] of the same molecule?
The value was “insufficient analgesia”.
